The results in this text go back to PubChem BioAssay (NCI).

Among the test systems are SF-295 CNS; SN12C renal; A498 renal; SR leukemia; 786-0 renal; U251 CNS; NCI/ADR-RES ovarian; MDA-MB-231 breast; BT-549 breast; HOP-92 NSCLC.
Holding throughout (assay): growth of human tumour cells (NCI), 48 h

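These data come from cells grown in 96-well plates and exposed to compound for 48 hours at five concentrations. GI50: concentration for 50% inhibition of growth. TGI marks complete inhibition of growth.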

`CCOc1cc2c(cc1O)C(N)C[C@@H]1[C@@H]2CC[C@]2(C)[C@@H](O)CC[C@@H]12` (stereo partly drawn): the TGI in the assay on SF-295 CNS is over 100 µM; with SN12C renal, over 100 µM; in the assay on A498 renal it was over 100 µM; with SR leukemia, 63 µM; in the assay with 786-0 renal it was over 100 µM; in the assay on U251 CNS, over 100 µM. Further, the TGI in the assay with NCI/ADR-RES ovarian, in the assay with MDA-MB-231 breast, in the assay with BT-549 breast and in the assay with HOP-92 NSCLC was over 100 µM each time. The GI50 in the assay with SN12C renal is 58.6 µM.
With `CN(C)CCCNC(=O)c1cn2c(ccc3sc4ccccc4c(=O)c32)n1`, the TGI with SF-295 CNS came out at 17.4 µM; with SN12C renal, 9.57 µM; in the assay with A498 renal, 30.7 µM; in the assay with SR leukemia it was 30 µM; in the assay on 786-0 renal, 8.08 µM; with U251 CNS, 3.22 µM. Also, the TGI in the assay with NCI/ADR-RES ovarian worked out at 8.37 µM; with MDA-MB-231 breast, 2.93 µM; in the assay on BT-549 breast it was 37.8 µM; in the assay with HOP-92 NSCLC, 24.7 µM.
On to `Cc1ccc2c(c1C)C(=O)/C(=C/c1cccc(C)c1C(=O)O)C2`, for which the TGI is over 100 µM with SF-295 CNS; over 100 µM in the assay with SN12C renal; 99.2 µM in the assay with A498 renal; over 100 µM with SR leukemia; over 100 µM in the assay on 786-0 renal; over 100 µM in the assay on U251 CNS. Further, the TGI is over 100 µM with NCI/ADR-RES ovarian, over 100 µM with MDA-MB-231 breast, over 100 µM with BT-549 breast and over 91 µM in the assay on HOP-92 NSCLC.
In the case of `CSCCCNC(=O)[C@H](CSC)NC(=O)c1csc(CCNC(=O)[C@@H](NSc2ccccc2[N+](=O)[O-])C(C)O)n1` (stereo partly drawn), the TGI in the assay with SF-295 CNS, in the assay with SN12C renal, in the assay with A498 renal, with SR leukemia, in the assay on 786-0 renal and in the assay on U251 CNS was over 100 µM in each case. For the same compound, the TGI in the assay with NCI/ADR-RES ovarian, in the assay with MDA-MB-231 breast, with BT-549 breast and in the assay with HOP-92 NSCLC was over 100 µM each time.
For `CN1CCN([C@H]2C[C@H]3[C@@H]4CC=C5C[C@@H](O)CC[C@]5(C)[C@H]4CC[C@]3(C)[C@H]2O)CC1`, the TGI is over 100 µM in the assay on SF-295 CNS; over 100 µM in the assay with SN12C renal; over 100 µM with A498 renal; 53.3 µM in the assay with SR leukemia; 32.1 µM in the assay on 786-0 renal; 32.8 µM in the assay on U251 CNS. Moreover, the TGI is over 100 µM in the assay with NCI/ADR-RES ovarian, over 64.7 µM with MDA-MB-231 breast, over 100 µM with BT-549 breast and over 100 µM in the assay on HOP-92 NSCLC.
With `COc1ccc(C2=NC(c3ccc(Cl)cc3)C(c3ccc(Cl)cc3)N2C(=O)N2CCNC(=O)C2)c(OC(C)C)c1` (stereo not drawn), the GI50 with SF-295 CNS is 1.81 µM; in the assay with SN12C renal it was 1.94 µM; in the assay with A498 renal, 1.89 µM; with SR leukemia it was 2.33 µM; with U251 CNS, 1.84 µM; in the assay with NCI/ADR-RES ovarian it was 1.92 µM. Further, the GI50 with MDA-MB-231 breast was 1.98 µM; in the assay on BT-549 breast, 2.03 µM; with HOP-92 NSCLC, 2.1 µM. In addition, the TGI in the assay with SF-295 CNS came to 3.38 µM; with SN12C renal, 3.49 µM; in the assay with A498 renal it was 3.55 µM; with SR leukemia, 5.89 µM; in the assay on U251 CNS, 3.57 µM; with NCI/ADR-RES ovarian, 3.83 µM. Further, the TGI is 3.89 µM in the assay on MDA-MB-231 breast, 4.03 µM with BT-549 breast and 4.06 µM in the assay on HOP-92 NSCLC.
Regarding `O=[N+]([O-])/C(C(Cl)=C(Cl)Cl)=C(/Nc1ccccc1)Sc1ccccc1`, the TGI with SF-295 CNS stood at 47.5 µM; in the assay with SN12C renal, 97.5 µM; with A498 renal, 38.3 µM; in the assay on SR leukemia, 43 µM; with 786-0 renal, 46.5 µM; in the assay on U251 CNS it was 27.7 µM. Moreover, the TGI in the assay with NCI/ADR-RES ovarian came out at 78.9 µM; in the assay with MDA-MB-231 breast, 37.6 µM; in the assay with BT-549 breast it was 66.9 µM; in the assay with HOP-92 NSCLC it was 68.3 µM.
As to `CC(NC(=O)C(Cc1ccc(OC(=O)c2ccccc2)cc1)NC(=O)OC(C)(C)C)C(=O)NCC(=O)NC(Cc1ccccc1)C(=O)NN` (stereo not drawn), the TGI was over 100 µM in the assay with SF-295 CNS; over 100 µM in the assay on A498 renal; 56.9 µM with SR leukemia; over 100 µM in the assay with 786-0 renal; over 100 µM with U251 CNS; over 100 µM with NCI/ADR-RES ovarian. Besides, the TGI with MDA-MB-231 breast, with BT-549 breast and in the assay on HOP-92 NSCLC was over 100 µM throughout.
`CC/C(N)=N\NC(=O)OC(C)(C)C`: the TGI in the assay with SF-295 CNS, in the assay with SN12C renal, with A498 renal, with SR leukemia, in the assay with 786-0 renal and in the assay on U251 CNS was over 100 µM throughout. For the same compound, the TGI with NCI/ADR-RES ovarian, in the assay with MDA-MB-231 breast, with BT-549 breast and in the assay on HOP-92 NSCLC was over 100 µM throughout.
As to `Cc1ccc(NC(=O)CC(=O)n2nc(C)c(N=Nc3cccc(C)c3)c2C)cc1`, the TGI in the assay on SF-295 CNS, with SN12C renal, in the assay on A498 renal, with SR leukemia, in the assay with 786-0 renal and with U251 CNS was over 100 µM each time. Besides, the TGI in the assay on NCI/ADR-RES ovarian, in the assay with MDA-MB-231 breast, with BT-549 breast and in the assay on HOP-92 NSCLC was over 100 µM in each case.
On to `CC(C)(C)[Si](C)(C)OC[C@H](/C=C\CCCC(=O)O)NC1(c2ccccc2)c2ccccc2-c2ccccc21`, for which the TGI with SF-295 CNS is over 100 µM; in the assay on SN12C renal, 31.6 µM; with A498 renal, 32.1 µM; in the assay with SR leukemia, 32.3 µM; in the assay with 786-0 renal, 30.3 µM; in the assay with U251 CNS, 30.6 µM. Further, the TGI with NCI/ADR-RES ovarian stood at 61 µM; in the assay on MDA-MB-231 breast, 39.3 µM; in the assay on BT-549 breast it was 91.6 µM; with HOP-92 NSCLC, 25.5 µM.
As for `COc1ccc(CNc2nc3ccccc3nc2C(=O)O)cc1`, the TGI in the assay on SF-295 CNS, in the assay on SN12C renal, with A498 renal, in the assay with SR leukemia, in the assay on 786-0 renal and with U251 CNS was over 100 µM in each case. For the same compound, the TGI in the assay on NCI/ADR-RES ovarian, in the assay on MDA-MB-231 breast, in the assay on BT-549 breast and in the assay with HOP-92 NSCLC was over 100 µM throughout.
